Among the data in patent publication US8552199B2, “Substituted indanes, method for the production thereof, and use thereof as drugs” (Sanofi, priority 2009, dated 2013) are IC50 values, retold here.

The target of this assay is human MCH receptor (Homo sapiens (Human), UniProt Q99705). The experiment in a line: calcium mobilization assay (FLIPR); functional IC50 values of MCH1R antagonists. It counts as cell-based. Particulars: recombinant HEK293 cell line expressing the human MCH receptor, cellular calcium flux after addition of agonist (MCH). The source says:
Influence on the MCH Receptor in vitro; Determination of Functional IC50 Values of MCH1R Antagonists
Cloning of the cDNA for the human MCH receptor, preparation of a recombinant HEK293 cell line which expresses the human MCH receptor, and functional measurements with the recombinant cell line took place in analogy to the description by Audinot et al. (J. Biol. Chem. 2001, 276, 13554-13562). A difference from the reference was, however, the use of the plasmid pEAK8 from EDGE Biosystems (USA) for the construction of the expression vector. The host used for the transfection was a transformed HEK cell line named “PEAK Stable Cells” (likewise from EDGE Biosystems). Functional measurements of the cellular calcium flux after addition of agonist (MCH) in the presence of ligand of the invention took place with the aid of the FLIPR apparatus from Molecular Devices (USA), using protocols of the apparatus manufacturer. The compounds of the invention show a significant inhibition (>30%) of the signal induced by the agonist at a concentration of 100 μM, preferably at 10 μM, particularly preferably at 1 μM, very particularly preferably at 100 nM and very very particularly preferably at 10 nM.
In general terms: Calcium flux is commonly read through the fluorescence of an indicator in the cells.

human MCH receptor, sequence (Q99705 whole entry): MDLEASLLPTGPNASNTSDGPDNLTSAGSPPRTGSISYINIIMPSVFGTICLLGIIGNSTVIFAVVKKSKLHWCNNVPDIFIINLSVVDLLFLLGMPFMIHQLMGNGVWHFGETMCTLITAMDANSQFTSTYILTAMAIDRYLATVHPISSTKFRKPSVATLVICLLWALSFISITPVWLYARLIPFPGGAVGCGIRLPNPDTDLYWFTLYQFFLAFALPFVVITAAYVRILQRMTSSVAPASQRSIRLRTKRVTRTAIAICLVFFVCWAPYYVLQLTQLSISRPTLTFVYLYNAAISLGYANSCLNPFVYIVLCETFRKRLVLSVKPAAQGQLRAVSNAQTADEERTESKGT

Broadly, the IC50 is the concentration needed to halve the response being measured. `CN(C(=O)c1ccc(OCC2CC2)cc1)[C@@H]1Cc2ccc(CN3CCC(C(C)(C)O)CC3)cc2C1` [Example 1-05]: the IC50 is 294 nM.
The figure for `CN(C(=O)c1ccc(OCC2CC2)cc1)[C@@H]1Cc2ccc(CN3CCCCCC3)cc2C1` [Example 1-09] is 139 nM.
The figure for `CN(C(=O)c1ccc(OCC2CC2)cc1)[C@@H]1Cc2ccc(CNCC3CCOCC3)cc2C1` [Example 1-15] is 123 nM; for `CN(C(=O)c1ccc(OCC2CC2)cc1)[C@@H]1Cc2ccc(CNCC(C)(C)C)cc2C1` [Example 1-23] it is 144 nM; for `COCCCNCc1ccc2c(c1)C[C@H](N(C)C(=O)c1ccc(OCC3CC3)cc1)C2` [Example 1-27] it is 117 nM.
For `CN(C(=O)c1ccc(OCC2CC2)cc1)[C@@H]1Cc2ccc(CN3CCC3)cc2C1` [Example 1-31], the IC50 was 111 nM.
The figure for `CCN(C)Cc1ccc2c(c1)C[C@H](N(C)C(=O)c1ccc(OCC3CC3)cc1)C2` [Example 1-32] is 147 nM; for `CN(C(=O)c1ccc(OCC2CC2)cc1)[C@@H]1Cc2ccc(CNCC3(C)CC3)cc2C1` [Example 1-34] it is 121 nM.
The figure for `CC[C@H](C)NCc1ccc2c(c1)C[C@H](N(C)C(=O)c1ccc(OCC3CC3)cc1)C2` [Example 1-36] is 198 nM; for `CN(C(=O)c1ccc(OCC2CC2)cc1)[C@@H]1Cc2ccc(CN3CC[C@H](O)C3)cc2C1` [Example 1-38] it is 115 nM.
The figure for `CC1(C)CCN(Cc2ccc3c(c2)C[C@H](NC(=O)c2ccc(OC[C@@H]4CCCO4)cc2)C3)CC1` [Example 1-40] is 208 nM; for `CC(C)(C)CNCc1ccc2c(c1)C[C@H](NC(=O)c1ccc(OC[C@@H]3CCCO3)cc1)C2` [Example 1-42] it is 222 nM; for `CN(C(=O)c1ccc(OC[C@@H]2CCCO2)cc1)[C@@H]1Cc2ccc(CNCC(C)(C)C)cc2C1` [Example 1-46] it is 144 nM.
Regarding `CN(C(=O)c1ccc(OC[C@@H]2CCCO2)cc1)[C@@H]1Cc2ccc(CN3CC4CCC3CC4)cc2C1` [Example 1-47], the IC50 was 229 nM.
The figure for `O=C(N[C@@H]1Cc2ccc(CN3CCCCCC3)cc2C1)c1ccc(OC[C@@H]2CCCO2)cn1` [Example 1-50] is 766 nM; for `O=C(N[C@@H]1Cc2ccc(CNCCC3CC3)cc2C1)c1ccc(OCC2CC2)cn1` [Example 1-55] it is 848 nM; for `CC1(CNCc2ccc3c(c2)C[C@H](NC(=O)c2ccc(OCC4CC4)cn2)C3)CC1` [Example 1-58] it is 1040 nM.
In the case of `CCCCOc1ccc(C(=O)N(C)[C@@H]2Cc3ccc(CN4C[C@@H]5CC[C@H]4C5)cc3C2)nc1` [Example 1-62], the IC50 amounted to 173 nM.
The figure for `CCCCOc1ccc(C(=O)N(C)[C@@H]2Cc3ccc(CNC[C@@H]4CCCO4)cc3C2)nc1` [Example 1-66] is 194 nM; for `CCCCOc1ccc(C(=O)N(C)[C@@H]2Cc3ccc(CNCC4(C)CCOCC4)cc3C2)nc1` [Example 1-72] it is 147 nM.
The figure for `CN(C(=O)c1ccc(OCC2CC2)cn1)[C@@H]1Cc2ccc(CN3CCCCC3)cc2C1` [Example 1-81] is 179 nM.
For the compound `O=C1c2ccc(OC[C@@H]3CCCO3)cc2CCN1[C@@H]1Cc2ccc(CNC3CCCCC3)cc2C1` [Example 1-90], the IC50 amounted to 777 nM.
The figure for `CCCCOc1ccc(C(=O)N(C)[C@@H]2Cc3ccc([C@H]4CCCN4)cc3C2)cc1` [Example 2, 4-Butoxy-N-methyl-N-((R)-(R)-5-pyrrolidin-2-ylindan-2-yl)benzamide] is 255 nM.
The figure for `CN1CCCC1c1ccc2c(c1)C[C@H](N(C)C(=O)c1ccc(OCC3CC3)cn1)C2` (stereo partly drawn) [Example 3-1, N-Methyl-N-[(R)-5-(1-methylpyrrolidin-2-yl)indan-2-yl]-5-cyclopropylmethoxypyridine-2-carboxamide] is 1140 nM.
